What follows are compounds tested against HPK1 (assay: HPK1 Lantha Binding Assay ("Lanth")). Conditions: Table B1-1, read-out: HPK1 Ki (μM) (Lanth).
Procedure: HPK1 Lantha Binding Assay (“Lanth”)
The compounds to be tested were diluted by preparing 12.5 uL/well of 5 mM compound (100×) in columns 2 and 13 and 10 ul/well of DMSO in columns 3-12, 14-23, and wells A1-H1 and I24-P24 of the compound plate using a Bravo liquid handling platform. For the reference compound, the top concentration was 1 mM. To the plate was added 10 ul 2 mM staurosporine in wells J1-P1 and A24-H24. A 11 point 5-fold compound serial dilution was performed using the Bravo liquid handling platform. From the plate were transferred 2.5 ul of the solutions from column 2 and column 13 to the 10 ul of DMSO in columns 3 and 14 & so on. The compound plate was centrifuged at 2500 rpm for 1 min. From the compound plate was transferred 80 nl of the compounds into an assay plate using the Echo liquid handler system. One compound plate makes two assay plates. Each assay plate is sealed and stored in an N2 cabinet.
The following assay concentrations and times were used: 2 nM HPK1, 2 nM Eu-Anti-GST Ab, and 15 nM Tracer222, with 60 min incubation time.
III. HPK Lantha Binding Assay:
For the binding assay, 4 ul 2×HPK1 and Eu-anti-GST antibody were added to each well of the assay plate using a Multidrop reagent dispenser. The solutions were incubated in a 23 C incubator for 1 h. To each well of the assay plate was added 4 ul 2× Tracer-222 using a Multidrop reagent dispenser. The solutions were again incubated in a 23 C incubator for 1 h. The results of the assay were read using an Envision plate reader with the following parameters: TR_FRET, 340ex/615 and 665em; 100 usec Delay; and 200 usec integration.
Compound Ki was analyzed using Morrison ki fit model in XL-fit • a. fit=(1−((((E+x)+(Ki*(1+(S/Kd))))−(((((E+x)+(Ki*(1+(S/Kd))))[…])−((4*E)*x))^0.5))/(2*E))) • res=(y-fit) • b. Parameters: • E=enzyme concentration • S=Tracer222 concentration, Kd=Tracer222 Kd • All measurements reported using the same units (uM)
Exemplary compounds of Formula I or Ia were tested in the binding assays. The Ki data in Table B1-1 are based on the “Lanth” assay.

Compared with Cc1ccncc1-c1nc(N)c2cnc(NC(=O)[C@H]3C[C@@H]3CC#N)cc2c1C1CC1 [Compound 317, (1S,2R)—N-(8-amino-5-cyclopropyl-6-(4-methylpyridin-3-yl)-2,7-naphthyridin-3-yl)-2-(cyanomethyl)cyclopropanecarboxamide], Cc1ccncc1-c1cc2cc(NC(=O)[C@H]3CC[C@@H]3C)ncc2c(N)n1 [Compound 320, (1S,2S)—N-(8-amino-6-(4-methylpyridin-3-yl)-2,7-naphthyridin-3-yl)-2-methylcyclobutanecarboxamide] is 390-fold higher in Ki: 0.02 nM for the first, 7.82 nM for the second.

Going from Cc1ccccc1-c1cc2cc(NC(=O)[C@@H]3C[C@H]3c3cnn(C)c3)ncc2c(N)n1 [Compound 298, (1R,2R)—N-[8-amino-6-(2-methylphenyl)-2,7-naphthyridin-3-yl]-2-(1-methyl-1H-pyrazol-4-yl)cyclopropane-1-carboxamide] to Cc1ccncc1-c1cc2cc(NC(=O)[C@H]3C[C@@H]3c3cnn(C)c3)ncc2c(N)n1 [Compound 197, (1S,2S)—N-(8-amino-6-(4-methylpyridin-3-yl)-2,7-naphthyridin-3-yl)-2-(1-methyl-1H-pyrazol-4-yl)cyclopropane-1-carboxamide], the Ki falls from 0.932 nM to 0.027 nM (35-fold).

Going from COc1ccc(C)c(-c2cc3cc(NC(=O)[C@H]4C[C@@H]4c4cnn(C)c4)ncc3c(N)n2)c1 [Compound 288, (1S,2S)—N-[8-amino-6-(5-methoxy-2-methylphenyl)-2,7-naphthyridin-3-yl]-2-(1-methyl-1H-pyrazol-4-yl)cyclopropane-1-carboxamide] to Cc1cc(-c2ncco2)ncc1-c1cc2cc(NC(=O)[C@@H]3C[C@H]3c3cnn(C)c3)ncc2c(N)n1 [Compound 309, (1R,2R)—N-[8-amino-6-[4-methyl-6-(1,3-oxazol-2-yl)pyridin-3-yl]-2,7-naphthyridin-3-yl]-2-(1-methyl-1H-pyrazol-4-yl)cyclopropane-1-carboxamide], the Ki falls from 6.19 nM to 0.184 nM (34-fold).

Going from Cc1ccncc1-c1cc2cc(Nc3cnn([C@H]4CCN(C)C4=O)c3)ncc2c(N)n1 [Compound 250, (3S)-3-(4-[[8-amino-6-(4-methylpyridin-3-yl)-2,7-naphthyridin-3-yl]amino]-1H-pyrazol-1-yl)-1-methylpyrrolidin-2-one] to Cc1ccncc1-c1cc2cc(Nc3cnn(CCO)c3)ncc2c(N)n1 [Compound 169, 2-[4-[[8-amino-6-(4-methyl-3-pyridyl)-2,7-naphthyridin-3-yl]amino]pyrazol-1-yl]ethanol], the Ki rises from 0.184 nM to 0.48 nM (2.6-fold).

Going from Cc1ccncc1-c1cc2cc(NC(=O)[C@@H]3C[C@@H]3F)ncc2c(N)n1 [Compound 6, (1S,2S)—N-(8-amino-6-(4-methylpyridin-3-yl)-2,7-naphthyridin-3-yl)-2-fluorocyclopropanecarboxamide] to Cc1ccncc1-c1cc2cc(NC(=O)[C@@H]3C[C@H]3C(C)(C)O)ncc2c(N)n1 [Compound 241, (1R,2R)—N-[8-amino-6-(4-methylpyridin-3-yl)-2,7-naphthyridin-3-yl]-2-(2-hydroxypropan-2-yl)cyclopropane-1-carboxamide], the Ki rises from 0.793 nM to 2.19 nM (2.8-fold).

First: Cc1cc(-c2ccccc2)ncc1-c1cc2cc(NC(=O)[C@@H]3C[C@H]3CC#N)ncc2c(N)n1 [Compound 334, (1R,2S)—N-[8-amino-6-(4-methyl-6-phenylpyridin-3-yl)-2,7-naphthyridin-3-yl]-2-(cyanomethyl)cyclopropane-1-carboxamide]
Second: Cc1cc(-c2cnn(C)c2)ncc1-c1cc2cc(NC(=O)[C@H]3C[C@@H]3CC#N)ncc2c(N)n1 [Compound 238, (1S,2R)—N-(8-amino-6-(4-methyl-6-(i-methyl-H-pyrazol-4-yl)pyridin-3-yl)-2,7-naphthyridin-3-yl)-2-(cyanomethyl)cyclopropanecarboxamide]
The Ki of the first is 11-fold higher: 20.4 nM for the first, 1.94 nM for the second. The second binds more tightly here.

First: CCc1ccncc1-c1cc2cc(Nc3cc(C(=O)N(C)CC)ccn3)ncc2c(N)n1 [Compound 81, 2-[8-Amino-6-(4-ethylpyridin-3-yl)-[2,7]naphthyridin-3-ylamino]-N-ethyl-N-methylisonicotinamide]
Second: CCc1ccncc1-c1cc2cc(NC(=O)c3ccnn3C)ncc2c(N)n1 [Compound 72, 2-Methyl-2H-pyrazole-3-carboxylic acid [8-amino-6-(4-ethylpyridin-3-yl)-[2,7]naphthyridin-3-yl]amide]
The Ki of the first is 47-fold lower: 0.3 nM for the first, 14.1 nM for the second.

Compared with Cc1ccncc1-c1cc2cc(NC(=O)C(C)(C)O)ncc2c(N)n1 [Compound 39, N-(8-amino-6-(4-methylpyridin-3-yl)-2,7-naphthyridin-3-yl)-2-hydroxy-2-methylpropanamide], COC(C)(C)[C@@H]1C[C@H]1C(=O)Nc1cc2cc(-c3cnccc3C)nc(N)c2cn1 [Compound 239, (1R,2R)—N-[8-amino-6-(4-methylpyridin-3-yl)-2,7-naphthyridin-3-yl]-2-(2-methoxypropan-2-yl)cyclopropane-1-carboxamide] is 380-fold lower in Ki: 2030 nM for the first, 5.28 nM for the second.

Cc1ccncc1-c1cc2cc(NC(=O)[C@@H]3C[C@H]3C3CCOCC3)ncc2c(N)n1 [Compound 325, (1R,2S)—N-[8-amino-6-(4-methylpyridin-3-yl)-2,7-naphthyridin-3-yl]-2-(oxan-4-yl)cyclopropane-1-carboxamide] and Cc1ccncc1-c1cc2cc(NC(=O)C3CC3(F)F)ncc2c(N)n1 (centres unmarked) [Compound 11, N-(8-amino-6-(4-methylpyridin-3-yl)-2,7-naphthyridin-3-yl)-2,2-difluorocyclopropanecarboxamide] are within 1.5-fold of each other in Ki: 3.43 nM for the first, 3.65 nM for the second.

Going from Cc1ccncc1-c1cc2cc(NCC(F)F)ncc2c(N)n1 [Compound 338, N6-(2,2-difluoroethyl)-3-(4-methylpyridin-3-yl)-2,7-naphthyridine-1,6-diamine] to Cc1cc(Nc2cc3cc(-c4cnccc4C)nc(N)c3cn2)n(CCO)n1 [Compound 261, 2-(5-[[8-amino-6-(4-methylpyridin-3-yl)-2,7-naphthyridin-3-yl]amino]-3-methyl-1H-pyrazol-1-yl)ethan-1-ol], the Ki falls from 345 nM to 36.7 nM (9.4-fold). The second binds more tightly here.

Going from C[C@H]1COC(=O)N1c1cc2cc(NC(=O)[C@@H]3C[C@H]3C#N)ncc2c(N)n1 [Compound 186, trans-N-(8-amino-6-((S)-4-methyl-2-oxooxazolidin-3-yl)-2,7-naphthyridin-3-yl)-2-cyanocyclopropanecarboxamide] to CCc1ccncc1-c1cc2cc(NC(=O)C3CC3)ncc2c(N)n1 [Compound 26, N-(8-amino-6-(4-ethylpyridin-3-yl)-2,7-naphthyridin-3-yl)cyclopropanecarboxamide], the Ki falls from 4 nM to 0.21 nM (19-fold). The second binds more tightly here.

Compared with Nc1nc(-c2cnccc2CCO)cc2cc(NC(=O)[C@@H]3C[C@H]3c3cccnc3)ncc12 [Compound 253, (1R,2R)—N-[8-amino-6-[4-(2-hydroxyethyl)pyridin-3-yl]-2,7-naphthyridin-3-yl]-2-(pyridin-3-yl)cyclopropane-1-carboxamide], CCc1ccncc1-c1cc2cc(Nc3cn[nH]c3)ncc2c(N)n1 [Compound 75, 3-(4-Ethylpyridin-3-yl)-N6-(1H-pyrazol-4-yl)-[2,7]naphthyridine-1,6-diamine] is 9-fold higher in Ki: 0.0892 nM for the first, 0.8 nM for the second. The first binds more tightly here.

Going from Cc1cc(-c2ncco2)ncc1-c1cc2cc(NC(=O)[C@H]3C[C@@H]3c3cnn(C)c3)ncc2c(N)n1 [Compound 308, (1S,2S)—N-[8-amino-6-[4-methyl-6-(1,3-oxazol-2-yl)pyridin-3-yl]-2,7-naphthyridin-3-yl]-2-(1-methyl-1H-pyrazol-4-yl)cyclopropane-1-carboxamide] to NCCOCCn1cc([C@@H]2C[C@H]2C(=O)Nc2cc3cc(-c4c(Cl)cccc4Cl)nc(N)c3cn2)cn1 [Compound 296, (1R,2R)—N-[8-amino-6-(2,6-dichlorophenyl)-2,7-naphthyridin-3-yl]-2-[1-[2-(2-aminoethoxy)ethyl]-1H-pyrazol-4-yl]cyclopropane-1-carboxamide], the Ki falls from 3.04 nM to 0.026 nM (120-fold). The second binds more tightly here.

CCc1ccncc1-c1cc2cc(NC(=O)CC#N)ncc2c(N)n1 [Compound 32, N-[8-amino-6-(4-ethyl-3-pyridyl)-2,7-naphthyridin-3-yl]-2-cyano-acetamide] showed a Ki of 26.4 nM.

Same assay, conditions: Table B1-2, read-out: HPK1 Ki, L = Lanth

Going from Cc1cc(C2=N[C@@H](C(C)C)CO2)ncc1-c1cc2cc(NC(=O)[C@H]3C[C@@H]3c3cnn(C)c3)ncc2c(N)n1 (stereo in doubt) [Compound 384, trans-N-(8-amino-6-(6-((S)-4-isopropyl-4,5-dihydrooxazol-2-yl)-4-methylpyridin-3-yl)-2,7-naphthyridin-3-yl)-2-(1-methyl-1H-pyrazol-4-yl)cyclopropane-1-carboxamide] to Cc1cccc(F)c1-c1cc2cc(NC(=O)[C@H]3[C@H](C)[C@@H]3c3cnn(C)c3)ncc2c(N)n1 [Compound 357, (1S,2R,3S)—N-[8-amino-6-(2-fluoro-6-methylphenyl)-2,7-naphthyridin-3-yl]-2-methyl-3-(1-methyl-1H-pyrazol-4-yl)cyclopropane-1-carboxamide], the Ki rises from 1.8 nM to 2.7 nM (1.5-fold). The first binds more tightly here.

— patent publication US11034692B1 (Genentech, Inc., priority 2017, dated 2021)
